Data as given in patent publication US9994571B2, “10-substituted morphinan hydantoins” (Purdue Pharma L.P., priority 2013, dated 2018).
Where two headings read alike, the source gives them in different places.

What was measured:
μ-opioid receptor [1] = molecular target: T1, μ-opioid receptor (Homo sapiens (Human), UniProt P35372); assay: μ-opioid receptor [35S]GTPγS functional assay; format: biochemical
Experimental: [^35S]GTPγS functional assays were conducted using freshly thawed μ-receptor membranes prepared in-house from a cell line expressing recombinant μ opioid receptor in a HEK-293, CHO or U-2 OS cell background, or purchased from a commercial source (Perkin Elmer, Shelton, Conn.; or DiscovRx, Fremont, Calif.). Assay reactions were prepared by sequentially adding the following reagents to binding buffer (100 mM NaCl, 10 mM MgCl2, 20 mM HEPES, pH 7.4) on ice (final concentrations indicated): membrane protein (0.026 mg/mL), saponin ([…]), GDP ([…]) and [^35S]GTPγS (0.20 nM; Perkin Elmer, Shelton, Conn.). The prepared membrane solution (190 l/well) was transferred to 96-shallow well polypropylene plates containing 10 μl of 20× concentrated stock solutions of the agonist [D-Ala^2, N-methyl-Phe^4 Gly-ol^5]-enkephalin (DAMGO) prepared in dimethyl sulfoxide (DMSO). Plates were incubated for 30 min at about 25° C. with shaking. Reactions were terminated by rapid filtration onto 96-well Unifilter GF/B filter plates (Perkin Elmer, Shelton, Conn.) using a 96-well tissue harvester (Perkin Elmer, Shelton, Conn.) followed by three filtration washes with 200 μl of ice-cold wash buffer (10 mM NaH2PO4, 10 mM Na2HPO4, pH 7.4). Filter plates were subsequently dried at 50° C. for 2-3 hours. BetaScint scintillation cocktail (Perkin Elmer, Shelton, Conn.) was added (50 μl/well) and plates were counted using a Packard Top-Count for 1 min/well. Data were analyzed using the sigmoidal dose-response curve fitting functions in GraphPad PRISM v. 3.0, or an in-house function for non-linear, sigmoidal dose-response curve-fitting.
μ GTP EC50 is the concentration of a compound providing 50% of the maximal response for the compound at a μ-opioid receptor.
μ GTP Emax (%) is the maximal effect elicited by a compound relative to the effect elicited by DAMGO, a standard μ agonist. Generally, the μ GTP Emax (%) value measures the efficacy of a compound to treat or prevent pain or other Conditions.
(§1) In TABLE 2, activity response of certain Compounds of the Invention to the μ- and κ-opioid receptors was determined as described above for functional assays using U-2 OS cells.

κ opioid receptor [2] = molecular target: T2, κ opioid receptor (Homo sapiens (Human), UniProt P41145); assay: κ-opioid receptor [35S]GTPγS functional assay; format: biochemical
Experimental: Functional [^35S]GTPγS binding assays were conducted as follows. κ opioid receptor membrane solution was prepared by sequentially adding final concentrations of 0.026 μg/μl κ membrane protein (in-house), 10 μg/mL saponin, 3 μM GDP and 0.20 nM [^35S]GTPγS to binding buffer (100 mM NaCl, 10 mM MgCl2, 20 mM HEPES, pH 7.4) on ice. The prepared membrane solution (190 μl/well) was transferred to 96-shallow well polypropylene plates containing 10 μl of 20× concentrated stock solutions of agonist prepared in DMSO. Plates were incubated for 30 min at a temperature of about 25° C. with shaking. Reactions were terminated by rapid filtration onto 96-well Unifilter GF/B filter plates (Perkin Elmer, Shelton, Conn.) using a 96-well tissue harvester (Packard) and followed by three filtration washes with 200 μl ice-cold binding buffer (10 mM NaH2PO4, 10 mM Na2HPO4, pH 7.4). Filter plates were subsequently dried at 50° C. for 2-3 hours. Fifty μl/well scintillation cocktail (Perkin Elmer, Shelton, Conn.) was added and plates were counted in a Packard Top-Count for 1 min/well.
κ GTP EC50 is the concentration of a compound providing 50% of the maximal response for the compound at a K receptor.
κ GTP Emax (%) is the maximal effect elicited by a compound relative to the effect elicited by U69,593.
as §1

μ-opioid receptor [3] = molecular target: T1, μ-opioid receptor; assay: μ-opioid receptor radioligand dose-displacement binding assay ([3H]-diprenorphine); details: binding assays using HEK-293 cells; read-out: Opioid Receptor Ki (nM) μ
Experimental: Radioligand dose-displacement binding assays for μ-opioid receptors used 0.3 nM [^3H]-diprenorphine (Perkin Elmer, Shelton, Conn.), with […] membrane protein/well in a final volume of 500 μl binding buffer (10 mM MgCl2, 1 mM EDTA, 5% DMSO, 50 mM HEPES, pH 7.4). Reactions were carried out in the absence or presence of increasing concentrations of unlabeled naloxone. All reactions were conducted in 96-deep well polypropylene plates for 2 hours at room temperature. Binding reactions were terminated by rapid filtration onto 96-well Unifilter GF/C filter plates (Perkin Elmer, Shelton, Conn.), presoaked in 0.5% polyethylenimine using a 96-well tissue harvester (Perkin Elmer, Shelton, Conn.) followed by performing three filtration washes with 500 μl of ice-cold binding buffer. Filter plates were subsequently dried at 50° C. for 2-3 hours. BetaScint scintillation cocktail (Perkin Elmer, Shelton, Conn.) was added (50 μl/well), and plates were counted using a Packard Top-Count for 1 min/well. The data were analyzed using the one-site competition curve fitting functions in GraphPad PRISM™ v. 3.0 or higher (San Diego, Calif.), or an in-house function for one-site competition curve-fitting.
(§2) In TABLE 1, binding affinity of certain Compounds of the Invention to the μ- and κ-opioid receptors was determined as described above for binding assays using HEK-293 cells.

κ opioid receptor [4] = molecular target: T2, κ opioid receptor; assay: κ-opioid receptor radioligand dose-displacement binding assay ([3H]-U69,593); details: binding assays using HEK-293 cells; read-out: Opioid Receptor Ki (nM) κ
Experimental: Membranes from HEK-293 cells, CHO or U-2 OS cells expressing the recombinant human κ opioid receptor (κ) were prepared by lysing cells in ice cold hypotonic buffer (2.5 mM MgCl2, 50 mM HEPES, pH 7.4) (10 mL/10 cm dish) followed by homogenization with a tissue grinder/Teflon pestle. Membranes from a cell line naturally expressing kappa opioid receptor can also be used. Membranes were collected by centrifugation at 30,000×g for 15 min at 4° C. and pellets were resuspended in hypotonic buffer to a final concentration of 1-3 mg/mL. Protein concentrations were determined using the BioRad protein assay reagent with bovine serum albumen as standard. Aliquots of K receptor membranes were stored at −80° C.
Radioligand dose displacement assays used 0.4 nM [^3H]-U69,593 (GE Healthcare, Piscataway, N.J.; 40 Ci/mmole) with 15 μg membrane protein (recombinant κ opioid receptor expressed in HEK 293 cells; in-house prep) in a final volume of 200 μl binding buffer (5% DMSO, 50 mM Trizma base, pH 7.4). Non-specific binding was determined in the presence of 10 μM unlabeled naloxone or U69,593. All reactions were performed in 96-well polypropylene plates for 1 hour at a temperature of about 25° C. Binding reactions were terminated by rapid filtration onto 96-well Unifilter GF/C filter plates (Perkin Elmer, Shelton, Conn.) presoaked in 0.5% polyethylenimine (Sigma). Harvesting was performed using a 96-well tissue harvester (Perkin Elmer, Shelton, Conn.) followed by five filtration washes with 200 μl ice-cold binding buffer. Filter plates were subsequently dried at 50° C. for 1-2 hours. Fifty μl/well scintillation cocktail (Perkin Elmer, Shelton, Conn.) was added and plates were counted in a Packard Top-Count for 1 min/well.
as §2

[5] = functional assays using U-2 OS cells, relative to the effect elicited by DAMGO
[6] = functional assays using U-2 OS cells, relative to the effect elicited by U69,593

Molecule | EC50 (μ-opioid receptor [1]) [nM] | Emax (μ-opioid receptor [1]; [5]) [%] | EC50 (κ opioid receptor [2]) [nM] | Emax (κ opioid receptor [2]; [6]) [%] | Ki (μ-opioid receptor [3]) [nM] | Ki (κ opioid receptor [4]) [nM] | EC50 (μ-opioid receptor [1]; functional assays using U-2 OS cells, read-out: Opioid Receptor μ EC50) [nM] | Opioid Receptor μ Emax (%) (μ-opioid receptor [1]; [5]) | EC50 (κ opioid receptor [2]; functional assays using U-2 OS cells, read-out: Opioid Receptor κ EC50) [nM] | Opioid Receptor κ Emax (%) (κ opioid receptor [2]; [6])
CN1CC[C@]23C[C@]4(CC[C@@]2(O)[C@H]1[C@H](O)c1ccc(O)cc13)NC(=O)NC4=O [Compound 17, (4bR,4′S,8aS,9R,10R)-3,8a,10-trihydroxy-11-methyl-5,7,8,8a,9,10-hexahydrospiro[9,4b-(epiminoethano)phenanthrene-6,4′-imidazolidine]-2′,5′-dione] | 116 ± 23 | 98.8 ± 0.97 | 5780 ± 1100 | 107 ± 1.53 |  |  |  |  |  | 
O=C1NC(=O)[C@@]2(CC[C@@]3(O)[C@H]4C(=O)c5ccc(O)cc5[C@@]3(CCN4CC3CC3)C2)N1 [Compound 13, (4bR,4′S,8aS,9S)-11-(cyclopropylmethyl)-3,8a-dihydroxy-7,8,8a,9-tetrahydrospiro[9,4b-(epiminoethano)phenanthrene-6,4′-imidazolidine]-2′,5′,10(5H)-trione] | 37.5 ± 6.18 | 61.3 ± 5.78 | 8.79 ± 1.26 | 106 ± 2.52 | 472 ± 40.8 | 12.2 ± 0.61 |  |  |  | 
(4bR,4′S,8aS,9S,10R)-11-(cyclopropylmethyl)-10-fluoro-8a-hydroxy-3-methoxy-5,7,8,8a,9,10-tetrahydrospiro [9,4b-(epiminoethano)phenanthrene-6,4′-imidazolidine]-2′,5′-dione [Compound 18] |  |  |  |  |  |  | 1550 ± 184 | 14.7 ± 0.33 | 1480 ± 125 | 81.7 ± 0.88
O=C1NC(=O)[C@@]2(CC[C@@]3(O)[C@H]4[C@H](O)c5ccc(O)cc5[C@@]3(CCN4CC3CC3)C2)N1 [Compound 14, (4bR,4′S,8aS,9R,10R)-11-(cyclopropylmethyl)-3,8a,10-trihydroxy-5,7,8,8a,9,10-hexahydrospiro[9,4b-(epiminoethano)phenanthrene-6,4′-imidazolidine]-2′,5′-dione] |  |  | 183 ± 17.3 | 111 ± 2.91 | 1020 ± 52.1 | 78.1 ± 21 |  |  |  | 
